According to patent US10047112B2, “Fluorescent labeled inhibitors” (priority 2014, dated 2018):
pIC50: −log10 of the molar value. Like-named read-outs stand apart in the source and are kept apart here.

Experiments:
in vitro = details: mouse
M. tb H37Rv-GFP [1] = test: microbe, parasite or virus in culture; assay type: cell-based; details: Mycobacterium tuberculosis, RAW264.7, 120 h, read-out: Intracellular macrophage growth IC50
M. tb H37Rv-GFP [2] = test: microbe, parasite or virus in culture; assay type: cell-based; details: Mycobacterium tuberculosis, 120 h, read-out: Extracellular growth IC50

SMILES | CC50 (in vitro) [µM] | pIC50 (M. tb H37Rv-GFP [1]) | pIC50 (M. tb H37Rv-GFP [2])
CCc1cc(C(N)=S)ccn1 [Ethionamide] | 120 | 5.22 | 5.22
NNC(=O)c1ccncc1 [Isoniazid] | > 150 | 5.92 | 5.92
CO[C@H]1/C=C/O[C@@]2(C)Oc3c(C)c(O)c4c(O)c(c(/C=N/N5CCN(C)CC5)c(O)c4c3C2=O)NC(=O)/C(C)=C\C=C\[C@H](C)[C@H](O)[C@@H](C)[C@@H](O)[C@@H](C)[C@H](OC(C)=O)[C@@H]1C [Rifampin] | 24 | 5.54 | 8.00
